ChEMBL document CHEMBL4507282, “Data for DCP probe BI-1950” (2021)

Tests used:
[1] = system: Mast/stem cell growth factor receptor Kit (Homo sapiens), P10721 [V559D]; details: Compound concentration 1000.0 nM
[2] = biological target: Leukocyte tyrosine kinase receptor (Homo sapiens) (UniProt P29376); details: Compound concentration 1000.0 nM
[3] = biological target: Cyclin-dependent kinase 15 (Homo sapiens) (UniProt Q96Q40); details: Compound concentration 1000.0 nM
[4] = biological target: Phosphatidylinositol 4-phosphate 5-kinase type-1 gamma (Homo sapiens) (UniProt O60331); details: Compound concentration 1000.0 nM
[5] = biological target: D(3) dopamine receptor (Homo sapiens) (UniProt P35462); details: Compound concentration 10.0 uM
[6] = biological target: Casein kinase I isoform alpha-like (Homo sapiens) (UniProt Q8N752); details: Compound concentration 1000.0 nM
[7] = biological target: Serine/threonine-protein kinase PAK 5 (Homo sapiens) (UniProt Q9P286); details: Compound concentration 1000.0 nM
[8] = biological target: Serine/threonine-protein kinase Sgk2 (Homo sapiens) (UniProt Q9HBY8); details: Compound concentration 1000.0 nM
[9] = biological target: cAMP-dependent protein kinase catalytic subunit beta (Homo sapiens) (UniProt P22694); details: Compound concentration 1000.0 nM
[10] = biological target: Inhibitor of nuclear factor kappa-B kinase subunit beta (Homo sapiens) (UniProt O14920); details: Compound concentration 1000.0 nM
[11] = biological target: Calcium/calmodulin-dependent protein kinase type IV (Homo sapiens) (UniProt Q16566); details: Compound concentration 1000.0 nM
[12] = biological target: Tyrosine-protein kinase Blk (Homo sapiens) (UniProt P51451); details: Compound concentration 1000.0 nM
[13] = biological target: Ribosomal protein S6 kinase alpha-2 (Homo sapiens) (UniProt Q15349); details: Compound concentration 1000.0 nM
[14] = biological target: Aurora kinase C (Homo sapiens) (UniProt Q9UQB9); details: Compound concentration 1000.0 nM
[15] = biological target: Casein kinase I isoform gamma-3 (Homo sapiens) (UniProt Q9Y6M4); details: Compound concentration 1000.0 nM
[16] = biological target: Activin receptor type-2A (Homo sapiens) (UniProt P27037); details: Compound concentration 1000.0 nM
[17] = biological target: Serine/threonine-protein kinase MRCK gamma (Homo sapiens) (UniProt Q6DT37); details: Compound concentration 1000.0 nM
[18] = biological target: Interleukin-1 receptor-associated kinase 4 (Homo sapiens) (UniProt Q9NWZ3); details: Compound concentration 1000.0 nM
[19] = biological target: Dual specificity testis-specific protein kinase 1 (Homo sapiens) (UniProt Q15569); details: Compound concentration 1000.0 nM
[20] = biological target: Serine/threonine-protein kinase DCLK2 (Homo sapiens) (UniProt Q8N568); details: Compound concentration 1000.0 nM
[21] = system: Phosphatidylinositol 4,5-bisphosphate 3-kinase catalytic subunit alpha isoform (Homo sapiens), P42336 [E542K]; details: Compound concentration 1000.0 nM
[22] = biological target: Vascular endothelial growth factor receptor 2 (Homo sapiens) (UniProt P35968); details: Compound concentration 1000.0 nM
[23] = biological target: Ribosomal protein S6 kinase alpha-6 (Homo sapiens) (UniProt Q9UK32); details: Compound concentration 1000.0 nM
[24] = biological target: Mitogen-activated protein kinase kinase kinase kinase 1 (Homo sapiens) (UniProt Q92918); details: Compound concentration 1000.0 nM
[25] = biological target: LIM domain kinase 1 (Homo sapiens) (UniProt P53667); details: Compound concentration 1000.0 nM
[26] = biological target: Mu-type opioid receptor (Homo sapiens) (UniProt P35372); details: Compound concentration 10.0 uM
[27] = biological target: Cyclin-dependent kinase 17 (Homo sapiens) (UniProt Q00537); details: Compound concentration 1000.0 nM
[28] = system: Leucine-rich repeat serine/threonine-protein kinase 2 (Homo sapiens), Q5S007 [G2019S]; details: Compound concentration 1000.0 nM
[29] = biological target: Muscle, skeletal receptor tyrosine-protein kinase (Homo sapiens) (UniProt O15146); details: Compound concentration 1000.0 nM
[30] = biological target: Cyclin-dependent kinase 2 homolog (Plasmodium falciparum (isolate 3D7)) (UniProt P61075); details: Compound concentration 1000.0 nM
[31] = biological target: High affinity nerve growth factor receptor (Homo sapiens) (UniProt P04629); details: Compound concentration 1000.0 nM
[32] = biological target: Rho-associated protein kinase 1 (Homo sapiens) (UniProt Q13464); details: Compound concentration 1000.0 nM
[33] = biological target: Calcium/calmodulin-dependent protein kinase type 1 (Homo sapiens) (UniProt Q14012); details: Compound concentration 1000.0 nM
[34] = system: Tyrosine-protein kinase ABL1 (Homo sapiens), P00519 [Y253F]; details: Compound concentration 1000.0 nM
[35] = system: eIF-2-alpha kinase GCN2 (Homo sapiens), Q9P2K8 [S808G]; details: Compound concentration 1000.0 nM
[36] = biological target: Phosphatidylinositol 5-phosphate 4-kinase type-2 gamma (Homo sapiens) (UniProt Q8TBX8); details: Compound concentration 1000.0 nM
[37] = biological target: Casein kinase I isoform epsilon (Homo sapiens) (UniProt P49674); details: Compound concentration 1000.0 nM
[38] = biological target: Proto-oncogene tyrosine-protein kinase receptor Ret (Homo sapiens) (UniProt P07949); details: Compound concentration 1000.0 nM
[39] = biological target: 5'-AMP-activated protein kinase catalytic subunit alpha-2 (Homo sapiens) (UniProt P54646); details: Compound concentration 1000.0 nM
[40] = biological target: Dual specificity mitogen-activated protein kinase kinase 3 (Homo sapiens) (UniProt P46734); details: Compound concentration 1000.0 nM
[41] = biological target: Ribosomal protein S6 kinase alpha-3 (Homo sapiens) (UniProt P51812); details: Compound concentration 1000.0 nM
[42] = biological target: Serine/threonine-protein kinase TAO2 (Homo sapiens) (UniProt Q9UL54); details: Compound concentration 1000.0 nM
[43] = biological target: Ephrin type-A receptor 7 (Homo sapiens) (UniProt Q15375); details: Compound concentration 1000.0 nM
[44] = biological target: Tyrosine-protein kinase ABL1 (Homo sapiens) (UniProt P00519); details: Compound concentration 1000.0 nM
[45] = biological target: Tyrosine-protein kinase Yes (Homo sapiens) (UniProt P07947); details: Compound concentration 1000.0 nM

Dual specificity testis-specific protein kinase 1 (Homo sapiens), sequence (Q15569 whole entry, looked up): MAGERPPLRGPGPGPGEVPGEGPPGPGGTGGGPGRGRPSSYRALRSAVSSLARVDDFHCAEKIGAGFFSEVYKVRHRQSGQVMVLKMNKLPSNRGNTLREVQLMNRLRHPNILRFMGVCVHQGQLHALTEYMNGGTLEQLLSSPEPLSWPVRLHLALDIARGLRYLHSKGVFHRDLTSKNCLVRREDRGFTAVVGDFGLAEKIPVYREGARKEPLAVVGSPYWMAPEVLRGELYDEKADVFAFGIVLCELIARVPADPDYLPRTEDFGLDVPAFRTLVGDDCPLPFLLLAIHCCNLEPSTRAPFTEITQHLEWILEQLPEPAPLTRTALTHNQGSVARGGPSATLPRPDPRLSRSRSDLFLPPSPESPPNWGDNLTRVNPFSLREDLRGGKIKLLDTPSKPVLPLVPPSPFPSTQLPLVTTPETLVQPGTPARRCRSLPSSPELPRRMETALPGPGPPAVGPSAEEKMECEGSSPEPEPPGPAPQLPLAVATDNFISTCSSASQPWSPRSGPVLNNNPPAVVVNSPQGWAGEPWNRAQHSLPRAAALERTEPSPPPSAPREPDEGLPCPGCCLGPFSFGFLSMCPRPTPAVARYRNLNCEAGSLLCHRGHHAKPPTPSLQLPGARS
Tyrosine-protein kinase Blk (Homo sapiens), sequence (P51451 2-505 limits assumed): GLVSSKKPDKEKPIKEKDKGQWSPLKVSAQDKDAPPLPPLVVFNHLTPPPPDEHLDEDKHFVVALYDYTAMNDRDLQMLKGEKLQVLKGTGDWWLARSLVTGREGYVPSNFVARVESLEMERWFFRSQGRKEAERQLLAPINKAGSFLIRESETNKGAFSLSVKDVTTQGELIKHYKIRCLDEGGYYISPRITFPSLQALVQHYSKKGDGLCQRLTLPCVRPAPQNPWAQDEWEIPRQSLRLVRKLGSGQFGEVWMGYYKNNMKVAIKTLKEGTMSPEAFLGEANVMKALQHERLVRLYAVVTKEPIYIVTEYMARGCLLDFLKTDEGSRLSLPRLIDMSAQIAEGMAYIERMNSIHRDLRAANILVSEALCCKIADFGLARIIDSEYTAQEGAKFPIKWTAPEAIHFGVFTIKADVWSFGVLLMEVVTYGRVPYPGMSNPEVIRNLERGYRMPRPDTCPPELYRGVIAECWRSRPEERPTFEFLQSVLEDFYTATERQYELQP
Ephrin type-A receptor 7 (Homo sapiens), sequence (Q15375 28-998 limits assumed): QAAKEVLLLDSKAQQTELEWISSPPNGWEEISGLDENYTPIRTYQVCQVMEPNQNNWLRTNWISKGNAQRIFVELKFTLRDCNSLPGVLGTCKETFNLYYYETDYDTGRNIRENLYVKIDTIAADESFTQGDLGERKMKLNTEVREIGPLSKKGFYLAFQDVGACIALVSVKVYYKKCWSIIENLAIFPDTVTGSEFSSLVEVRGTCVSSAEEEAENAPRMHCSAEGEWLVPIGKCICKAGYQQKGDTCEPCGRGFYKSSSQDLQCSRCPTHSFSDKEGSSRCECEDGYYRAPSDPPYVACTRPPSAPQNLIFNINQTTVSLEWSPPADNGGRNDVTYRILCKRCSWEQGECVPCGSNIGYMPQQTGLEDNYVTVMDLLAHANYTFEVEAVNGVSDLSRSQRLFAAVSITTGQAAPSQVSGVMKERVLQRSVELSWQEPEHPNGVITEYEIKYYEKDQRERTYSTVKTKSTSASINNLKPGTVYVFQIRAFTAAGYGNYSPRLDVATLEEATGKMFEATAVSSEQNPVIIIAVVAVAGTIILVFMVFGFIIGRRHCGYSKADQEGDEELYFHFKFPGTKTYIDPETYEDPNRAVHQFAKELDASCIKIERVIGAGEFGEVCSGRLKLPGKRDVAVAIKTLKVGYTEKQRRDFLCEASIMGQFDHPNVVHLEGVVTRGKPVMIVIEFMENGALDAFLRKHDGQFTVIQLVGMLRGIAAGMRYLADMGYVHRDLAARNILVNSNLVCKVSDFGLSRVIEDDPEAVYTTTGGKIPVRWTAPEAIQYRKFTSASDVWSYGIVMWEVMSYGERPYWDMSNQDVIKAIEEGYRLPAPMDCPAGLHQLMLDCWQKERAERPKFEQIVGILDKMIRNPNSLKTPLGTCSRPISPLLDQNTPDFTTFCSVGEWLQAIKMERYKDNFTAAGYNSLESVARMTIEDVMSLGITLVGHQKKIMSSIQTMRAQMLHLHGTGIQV
Inhibitor of nuclear factor kappa-B kinase subunit beta (Homo sapiens), sequence (O14920 whole entry): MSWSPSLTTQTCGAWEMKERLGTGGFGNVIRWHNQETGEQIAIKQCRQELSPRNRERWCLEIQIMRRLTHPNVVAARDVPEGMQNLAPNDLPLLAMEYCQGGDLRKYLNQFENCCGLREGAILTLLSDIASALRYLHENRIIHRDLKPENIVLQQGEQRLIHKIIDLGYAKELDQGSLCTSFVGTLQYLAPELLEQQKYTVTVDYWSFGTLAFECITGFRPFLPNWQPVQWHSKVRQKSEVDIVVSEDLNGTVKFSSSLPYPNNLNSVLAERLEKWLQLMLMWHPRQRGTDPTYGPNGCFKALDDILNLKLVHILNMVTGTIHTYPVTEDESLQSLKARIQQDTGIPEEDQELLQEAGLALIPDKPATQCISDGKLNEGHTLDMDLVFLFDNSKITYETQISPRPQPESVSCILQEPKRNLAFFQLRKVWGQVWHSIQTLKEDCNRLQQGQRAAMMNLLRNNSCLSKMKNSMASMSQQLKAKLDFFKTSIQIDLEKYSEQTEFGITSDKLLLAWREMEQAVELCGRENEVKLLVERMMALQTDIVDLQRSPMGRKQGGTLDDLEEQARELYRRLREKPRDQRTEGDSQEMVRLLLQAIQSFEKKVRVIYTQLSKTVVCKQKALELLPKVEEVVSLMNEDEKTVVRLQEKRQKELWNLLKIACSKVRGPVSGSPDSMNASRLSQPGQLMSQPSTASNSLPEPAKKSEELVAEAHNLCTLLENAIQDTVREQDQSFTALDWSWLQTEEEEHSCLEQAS
Ribosomal protein S6 kinase alpha-6 (Homo sapiens), sequence (Q9UK32 whole entry): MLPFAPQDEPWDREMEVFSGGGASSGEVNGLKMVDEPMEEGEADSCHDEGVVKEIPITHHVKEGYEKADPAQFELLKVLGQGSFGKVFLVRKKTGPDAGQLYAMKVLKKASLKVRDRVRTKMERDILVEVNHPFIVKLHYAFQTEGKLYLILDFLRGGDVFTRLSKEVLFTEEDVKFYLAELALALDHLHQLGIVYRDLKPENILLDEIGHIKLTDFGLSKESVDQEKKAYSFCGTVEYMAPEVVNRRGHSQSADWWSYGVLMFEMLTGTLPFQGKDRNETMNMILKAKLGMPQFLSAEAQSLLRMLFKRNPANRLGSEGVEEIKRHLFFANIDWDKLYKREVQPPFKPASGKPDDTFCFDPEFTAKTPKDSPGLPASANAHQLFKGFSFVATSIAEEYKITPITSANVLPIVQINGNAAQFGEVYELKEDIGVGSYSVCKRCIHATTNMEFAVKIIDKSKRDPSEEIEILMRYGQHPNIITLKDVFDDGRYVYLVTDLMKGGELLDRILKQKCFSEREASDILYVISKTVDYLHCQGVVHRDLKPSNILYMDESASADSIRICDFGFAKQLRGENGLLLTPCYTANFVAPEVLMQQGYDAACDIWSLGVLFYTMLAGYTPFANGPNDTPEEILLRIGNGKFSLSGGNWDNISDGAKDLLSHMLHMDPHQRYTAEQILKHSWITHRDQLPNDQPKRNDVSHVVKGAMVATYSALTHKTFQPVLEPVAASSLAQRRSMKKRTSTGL
Cyclin-dependent kinase 2 homolog (Plasmodium falciparum (isolate 3D7)), sequence (P61075 whole entry): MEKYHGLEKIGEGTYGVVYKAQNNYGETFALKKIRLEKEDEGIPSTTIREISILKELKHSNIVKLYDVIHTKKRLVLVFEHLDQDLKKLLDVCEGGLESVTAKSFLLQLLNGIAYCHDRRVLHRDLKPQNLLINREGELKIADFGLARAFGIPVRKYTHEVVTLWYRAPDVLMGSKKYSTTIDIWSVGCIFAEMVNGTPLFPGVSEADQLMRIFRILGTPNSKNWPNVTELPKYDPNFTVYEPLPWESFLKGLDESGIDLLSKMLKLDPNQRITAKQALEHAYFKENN
Aurora kinase C (Homo sapiens), sequence (Q9UQB9 whole entry, canonical isoform): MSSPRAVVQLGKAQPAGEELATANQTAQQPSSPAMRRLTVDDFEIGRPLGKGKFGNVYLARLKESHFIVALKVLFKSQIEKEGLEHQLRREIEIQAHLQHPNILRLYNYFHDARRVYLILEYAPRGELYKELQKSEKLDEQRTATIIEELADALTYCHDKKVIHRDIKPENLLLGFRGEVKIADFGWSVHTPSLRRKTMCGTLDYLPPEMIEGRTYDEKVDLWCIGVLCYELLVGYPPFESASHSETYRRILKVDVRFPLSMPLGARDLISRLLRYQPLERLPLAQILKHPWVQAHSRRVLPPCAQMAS
Serine/threonine-protein kinase DCLK2 (Homo sapiens), sequence (Q8N568 whole entry, canonical isoform): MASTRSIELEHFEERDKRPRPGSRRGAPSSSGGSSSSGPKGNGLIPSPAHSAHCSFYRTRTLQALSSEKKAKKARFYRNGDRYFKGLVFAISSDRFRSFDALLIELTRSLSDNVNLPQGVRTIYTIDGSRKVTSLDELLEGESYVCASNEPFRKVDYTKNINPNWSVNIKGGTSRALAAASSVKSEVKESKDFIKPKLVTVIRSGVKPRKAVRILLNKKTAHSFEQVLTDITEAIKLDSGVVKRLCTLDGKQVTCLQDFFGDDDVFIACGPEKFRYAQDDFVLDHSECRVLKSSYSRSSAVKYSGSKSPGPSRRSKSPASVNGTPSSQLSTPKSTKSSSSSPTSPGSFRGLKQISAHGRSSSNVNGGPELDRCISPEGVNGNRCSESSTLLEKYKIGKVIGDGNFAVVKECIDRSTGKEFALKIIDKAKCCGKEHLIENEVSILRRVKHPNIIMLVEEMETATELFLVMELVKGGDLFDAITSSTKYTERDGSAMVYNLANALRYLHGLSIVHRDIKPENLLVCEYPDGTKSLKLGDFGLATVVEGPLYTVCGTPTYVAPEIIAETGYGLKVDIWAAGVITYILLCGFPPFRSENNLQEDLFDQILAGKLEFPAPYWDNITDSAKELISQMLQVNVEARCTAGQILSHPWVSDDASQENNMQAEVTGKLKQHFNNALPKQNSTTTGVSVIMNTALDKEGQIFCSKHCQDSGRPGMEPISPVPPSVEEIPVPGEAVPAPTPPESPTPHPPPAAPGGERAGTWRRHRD

C[C@H](NC(=O)c1cnc2n1[C@](C)(Cc1ccc(C#N)cc1)C(=O)N2c1cc(Cl)c(F)c(Cl)c1)C(=O)NC1(c2ccccn2)CC1 [BI 1950]
inactive: residual activity [1] 91% | residual activity [2] 100% | residual activity [3] 100% | residual activity [4] 80% | inhibition [5] -3.54% | residual activity [6] 100% | residual activity [7] 100% | residual activity [8] 94% | residual activity [9] 75% | residual activity [10] 90% | residual activity [11] 100% | residual activity [12] 98% | residual activity [13] 100% | residual activity [14] 100% | residual activity [15] 100% | residual activity [16] 92% | residual activity [17] 100% | residual activity [18] 100% | residual activity [19] 100% | residual activity [20] 100% | residual activity [21] 100% | residual activity [22] 99% | residual activity [23] 91% | residual activity [24] 100% | residual activity [25] 100% | inhibition [26] 17.4% | residual activity [27] 100% | residual activity [28] 100% | residual activity [29] 100% | residual activity [30] 100% | residual activity [31] 98% | residual activity [32] 100% | residual activity [33] 96% | residual activity [34] 100% | residual activity [35] 100% | residual activity [36] 100% | residual activity [37] 82% | residual activity [38] 100% | residual activity [39] 100% | residual activity [40] 80% | residual activity [41] 100% | residual activity [42] 92% | residual activity [43] 84% | residual activity [44] 99% | residual activity [45] 100%

C[C@@]1(Cc2ccc(C#N)cc2)C(=O)N(c2cc(Cl)cc(Cl)c2)c2ncc(C(=O)NC3(c4nc(C5CCC5)no4)CC3)n21 [BI 9446]
inactive: residual activity [1] 99% | residual activity [2] 100% | residual activity [3] 97% | residual activity [4] 100% | inhibition [5] 9.55% | residual activity [6] 89% | residual activity [7] 100% | residual activity [8] 100% | residual activity [9] 100% | residual activity [10] 100% | residual activity [11] 100% | residual activity [12] 100% | residual activity [13] 100% | residual activity [14] 100% | residual activity [15] 100% | residual activity [16] 92% | residual activity [17] 100% | residual activity [18] 100% | residual activity [19] 100% | residual activity [20] 100% | residual activity [21] 83% | residual activity [22] 100% | residual activity [23] 100% | residual activity [24] 100% | residual activity [25] 90% | inhibition [26] 31.1% | residual activity [27] 100% | residual activity [28] 100% | residual activity [29] 100% | residual activity [30] 100% | residual activity [31] 100% | residual activity [32] 100% | residual activity [33] 93% | residual activity [34] 95% | residual activity [35] 100% | residual activity [36] 100% | residual activity [37] 100% | residual activity [38] 100% | residual activity [39] 100% | residual activity [40] 89% | residual activity [41] 100% | residual activity [42] 100% | residual activity [43] 92% | residual activity [44] 100% | residual activity [45] 100%
